Measurements taken from a melting point compilation (Tetko et al.; mined from patent text by program, amines drawn as free bases though some values may be those of a salt).

Row | SMILES | melting point [°C]
1 | CCCOc1c(OCc2ccccc2)cc([C@H]2CC[C@H](c3cc(OC)c(OC)c(OC)c3)O2)cc1S(=O)(=O)CCO (relative stereo) | 112 to 113
2 | CC(=O)Nc1ccccc1C(=O)C1CCCCC1 | 66
3 | CC(=O)Nc1ccc(CN2CCC(C(c3ccccc3)c3ccccc3)CC2)cc1 | 182 to 183
4 | CSc1ccc(C=C2C(=O)c3ccccc3CC2OCCn2ccnc2)cc1 (stereo not drawn) | 161 to 162
5 | O=S1(=O)NC(C23CC4CC(CC(C4)C2)C3)Nc2c(Br)cc(Br)cc21 (stereo not drawn) | 270 to 273
6 | O=c1c2c(c1=O)Nc1c(cc(Cl)c(Cl)c1Cl)N2 | > 360
7 | COc1ccc2[nH]c(=O)n(S(=O)(=O)c3ccc(Cl)cc3)c(=O)c2c1 | 192 to 194
8 | CC1CCc2c(Cl)c(F)cc3c(=O)c(C(=O)O)cn1c23 (stereo not drawn) | 297 to 298
9 | CN(CC(=O)c1ccc(N(C)C)cc1)Cc1cc2c(=O)c(C(=O)NCc3ccc(Cl)cc3)cn(C)c2s1 | 162
10 | C=C(F)c1c(C(=O)OC)nc(Cl)c(F)c1N | 98 to 100
11 | O=C(CCl)NCCCCOc1cc(CN2CCCCC2)ccn1 | 59 to 63
12 | CC(CS)C(=O)N1C(=O)CC[C@H]1C(=O)O (stereo partly drawn) | 101 to 108
13 | Cn1c(NCCCCCC(=O)O)c(NC=O)c(=O)n(C)c1=O | 152 to 153
14 | N#Cc1nn(-c2c(Cl)cc(C(F)(F)F)cc2Cl)c(N)c1-c1ccc(SC(F)(F)F)s1 | 162 to 163
15 | NC(=O)C1CCN(c2ncncc2Br)CC1 | 188 to 190
16 | CC(C)C(=O)Nc1cc(C(C)(C)C)on1 | 123 to 124
17 | Cn1cccc1C(=O)C(C#N)C(=O)Nc1ccccc1 (stereo not drawn) | 170 to 172
18 | CC(=O)SCCc1ccc(C=O)cc1 | 35
19 | O=c1[nH]c(=O)n(C2CC(Cl)C(CBr)O2)cc1C=CBr (stereo not drawn) | 149
20 | O=C(CCCC(Cl)c1ccc(Cl)cc1)Nc1ccccc1 (stereo not drawn) | 99 to 102
21 | COc1c(F)cccc1OCCN1C(=O)c2ccccc2C1=O | 112 to 113

Row | SMILES | melting point [°C]
22 | O=C(Oc1ccccc1)OC1CN(C(=O)Oc2ccccc2)CCC1c1ccccc1 (stereo not drawn) | 153 to 154
23 | CC(C)(C)NC(=O)c1nn(-c2cc(F)c(F)cc2F)c2c1C1CCC2C1 (stereo not drawn) | 127 to 130
24 | O=C(c1cccc(C(=O)c2ccc(F)c([N+](=O)[O-])c2)c1)c1ccc(F)c([N+](=O)[O-])c1 | 148 to 149
25 | COC(=O)[C@H]1C=C(c2ccccc2)OC(=O)[C@H]1Cc1ccccc1 | 105 to 106
26 | Cc1cccc(C)c1NCC(=O)c1ccc(Cl)cc1 | 82
27 | N#Cc1ccc(C(=O)N2CCN(NC(=O)c3ccc(F)cc3)CC2)cc1 | 222 to 224
28 | CC(C)(C)[Si](C)(C)O[C@H]1OC[C@@H](n2cnc3cc(Cl)c(Cl)cc32)[C@H](O)[C@@H]1O | 128 to 130
29 | CC1(C)COC(CCCc2ccc(NC=NO)cc2)OC1 | 138 to 140
30 | COc1ccc(P2(=O)c3ccccc3CN2c2ccccc2)c(OC)c1 (stereo not drawn) | 173 to 175
31 | CC(C)(C)c1cc(OCC(=O)NN)cc(C(C)(C)C)c1O | 141 to 142
32 | CC(C)(C)OC(=O)NCCc1ccc(CC(=O)O)cc1 | 94 to 95
33 | CC(=O)NC[C@H]1CN(c2ccc(N3CCC(O)(CC(N)=O)CC3)c(F)c2)C(=O)O1 | 208 to 210
34 | CC(=O)N1CCC(c2nn(-c3ccccc3)c3cc(F)ccc23)CC1 | 126 to 128
35 | CCc1c(N)c(C(N)=O)nn1CCOC | 131
36 | O=C1CCNC(C(O)c2ccccc2)C1 (stereo not drawn) | 124 to 126
37 | COP(=O)(OC)[C@@H](O)[C@H](CC1CCCCC1)NC(=O)[C@H](CC(C)C)NC(=O)CCc1ccccc1 | 157
38 | O=C1OCCC1Nc1ccc(Nc2ccccc2)cc1 (stereo not drawn) | 142 to 143
39 | O=C1Nc2ncccc2C12COc1cc3c(cc12)OCCO3 (stereo not drawn) | > 250
40 | O=[N+]([O-])c1ccc2[nH]cc(Cc3ccc(F)cc3)c2c1 | 142 to 144
41 | COc1ccc(C=CC(=O)C2C(=O)CCC2=O)cc1O | 61 to 62
42 | CC1C[C@H]2[C@@H](O1)[C@@H](O)C(=O)N2Cc1ccccc1 (relative stereo) | 98 to 101

Row | SMILES | melting point [°C]
43 | CCCCCCCCCC1(C)NC(=S)NC1=S (stereo not drawn) | 88 to 89
44 | COc1cc2cc(CO)c(CO)c(-c3ccnc(Nc4ccccc4C(CO)CCO)c3)c2cc1OC (stereo not drawn) | 204 to 207
45 | Cc1c(C)c2c(c(C)c1N)C(c1ccccc1)C(C)(C)O2 (stereo not drawn) | 131 to 132
46 | O=C(O)CCCc1cc2nc(Cl)ccc2n1S(=O)(=O)c1ccc(-c2cnco2)cc1 | 169 to 176
47 | CCC1=Nc2c(C)nn(C)c2C2=NC(C)CN12 (stereo not drawn) | 153 to 155
48 | CC(=O)Oc1ccc(C(C)(C)C)cc1C1(OC(C)=O)C(=O)c2ccccc2C1=O | 195 to 196
49 | CC(C)(C)c1ccc(C(=O)CCCN2CCC(O)CC2)cc1 | 63 to 65
50 | O=C1NC(C(=O)NCCO[N+](=O)[O-])C(c2ccccc2)S1 (stereo not drawn) | 139 to 140
51 | C(=C\c1nc2ccccc2n1-c1ccncc1)/c1ccoc1 | 172
52 | CC(C)(C)OC(=O)N[C@H](C(=O)N1CCC[C@H]1C(=O)NC1CCc2nc(N)sc2C1)C(c1ccccc1)c1ccccc1 (stereo partly drawn) | 127 to 130
53 | Nc1ccn(C2COC(CO)C2O)c(=O)n1 (stereo not drawn) | 235
54 | CC[C@H](C)[C@H](OCc1ccccc1)[C@H]1[C@H]([N+](=O)[O-])[C@@H]([C@@H](OCc2ccccc2)C(C)C)N[C@@H]1C(=O)O | 172 to 174
55 | COC(=O)c1ccc2c(nc(C)n2Cc2ccccc2)c1C1=NC(C)(C(C)C)C(=O)N1 (stereo not drawn) | 194 to 196
56 | COc1cc2c(cc1O)CCN(Cc1ccccc1OC)C2 | 128 to 129
57 | CC(C#N)CCC(=O)O (stereo not drawn) | 31.9 to 32.6
58 | CCCCOc1coc(CO)cc1=O | 68 to 73
59 | ClC1(c2cccs2)CC1c1ccccc1 (stereo not drawn) | 61 to 63
60 | CC(=O)NCC1CC(c2ccc(N3CCS(=O)CC3)c(F)c2)=NO1 (stereo not drawn) | 204 to 205
61 | O=c1[nH]c2ncc(-c3ccc(-n4cccn4)cc3)nc2n1CC1CCOCC1 | 294 to 296
62 | O=C(O)C(Br)c1ccc(Cl)cc1 (stereo not drawn) | 92 to 93

Second part, the compound after the results:

Row | melting point [°C] | SMILES
63 | 216 to 217 | O=C(O)CCc1cc2nc(C(F)(F)F)ccc2n1S(=O)(=O)c1cccc2cccnc12
64 | 76 | O=C1N(Cc2ccccc2)OCCN1c1ccc(Cl)c(Cl)c1
65 | 270 to 271 | O=c1[nH]cnc2c1cnn2CC(O)c1ccccc1 (stereo not drawn)
66 | 154 to 155 | CCCOc1cc(-c2c(C(=O)OCC)c(Cn3cnnc3)nc3cc(OC)c(OC)cc23)ccc1OC
67 | 223 | O=C(Nc1cc2cn[nH]c2cc1Cl)c1ccccc1NCc1ccncc1
68 | 45 | Fc1cccc(Cl)c1-c1c(Cl)cc(-c2ccccn2)nc1Cl
69 | 65 to 80 | CCCCN(Cc1ccc(-c2ccccc2-c2nnn[nH]2)cc1)c1ncncc1C(=O)OCC(=O)OC
70 | 198 to 200 | Fc1ccccc1-c1noc2c(Cl)c(OCc3nnn[nH]3)ccc12
71 | 199 to 200 | Nc1nnc(-c2cccc(OC(F)(F)C(F)F)c2)c(N)n1
72 | 100 | CCOC(=O)C(=O)Nc1c(C)oc2ccccc2c1=O
73 | 63 to 64 | c1ccc(-c2nc(COc3cccc(CCCn4ccnc4)c3)cs2)cc1
74 | 181 to 182 | Cc1ccc(C(=O)NC(NC(=S)Nc2cccc([N+](=O)[O-])c2)C(C)(C)C)cc1 (stereo not drawn)
75 | 165 to 166 | CC(C)(C)COc1cccc(C[C@@H](NC(=O)c2ccc(F)c3ccccc23)[C@@H](O)c2cccc(Cl)c2)c1 (racemic)
76 | 70 to 71 | CN1CCN(c2cccc3ccc(OS(=O)(=O)C(F)(F)F)cc23)CC1
77 | 100 | CC1(C)C=C(c2ccccn2)c2cc(Cl)ccc2OC1
78 | 108 to 109 | CCC(=O)Nc1nc2cccc(C)c2c(=O)o1
79 | 65 to 66 | CCSc1ccc2cccc(CCNC(C)=O)c2c1
80 | 124 to 129 | CC(C)(CCCc1cccc2cncn12)CC(=O)O
81 | 65 to 68 | C#CCc1nc(-c2ccc(C)cc2)oc1C
82 | 99 to 100 | CCCC(=O)c1cnc2c(OCCCN(C)C)cccc2c1Nc1ccc(F)cc1C
83 | 151 | OC1CSC(Oc2cc(-c3ccncc3)cc(F)c2F)C(O)C1O (stereo not drawn)

Row | melting point [°C] | SMILES
84 | 167 to 169 | CCN1C(=O)N(c2cc(OC)cc(OC)c2)Cc2cnc(S(C)=O)nc21 (stereo not drawn)
85 | 84.5 to 86.5 | COc1ccc(C(=S)Nc2ccccc2OC)cc1
86 | 202 to 205 | O=C(Nc1ccc(Br)cc1)c1ccccc1[N+](=O)[O-]
87 | > 230 | CSc1nn2c(-n3ccnc3)cc(C)nc2c1S(=O)(=O)c1ccccc1
88 | 194 to 195 | OCc1ccc(-c2ccc(OCc3ccccc3)cc2)cc1
89 | 195 | CC(=O)OC1CSC(Oc2cccc(-c3c(C)n[nH]c3C)c2)C(OC(C)=O)C1OC(C)=O (stereo not drawn)
90 | 110 to 112 | CCC(COC(=O)c1ccc(N)c(Cl)c1OC)(c1cccs1)N(C)C (stereo not drawn)
91 | 71 to 73 | COc1cc(N)c(Cl)cc1C(=O)NCC1CCN(CCCCOc2ccccc2)CC1
92 | 140 to 142 | COC(=O)C(N)C(C)(C)SSc1ccccc1C(=O)Nc1ccc(S(N)(=O)=O)cc1 (stereo not drawn)
93 | 204 to 206 | O=C(O)c1nc2n(n1)-c1ccccc1N(c1cccc(C(F)(F)F)c1)C2
94 | 162 | CC1Oc2ccccc2-n2cnc(-c3noc(C4CC4)n3)c21 (stereo not drawn)
95 | 255 to 260 | O=C1CCCc2[nH]c3ccc(F)cc3c21
96 | 45 to 47 | Nc1ccc(SCC2CC2)cc1[N+](=O)[O-]
97 | 146 | Cc1ccc(S(=O)(=O)Nc2ccc(N)c([N+](=O)[O-])c2)cc1
98 | 81 to 82 | CN(C)CCc1cccc(OCCCNc2nc(N)nn2C)c1
99 | 155 | Cc1ncc(CN)c(N)n1
100 | 104 to 106 | O=C(O)C(CCCCCc1ccc(Cl)cc1)S(=O)(=O)c1cccc(Cl)c1 (stereo not drawn)
101 | 149 to 151 | O=C(c1ccc(F)c(F)c1)N1CCC[C@H](c2nc(-c3ccccc3)no2)C1
102 | 153 to 155 | Cc1cc(Oc2c(Cl)cc(C(F)(F)F)cc2Cl)n[nH]1
103 | 163 to 165 | COC(=O)c1cc(-n2cnc(Br)c2)c(C(F)(F)F)cc1N
